Target: MT1-MMP (Homo sapiens, UniProt P50281)
Experiment: MT1-MMP sensitivity of ACPP probes (LC-MS)
Format: biochemical
Conditions: peptide 0.1 mM, MT1-MMP 0.13 µM (method section: 15 nM), 60 min, 37 °C, 50 mM Tris, 200 mM NaCl, 10 mM CaCl2, 10 µM ZnCl2, pH 7.5, LC-MS; cleavage between Asn and Leu
Description: The peptides ACPP-A, ACPP-B, and ACPP-C (without SHPP functionality) were screened for MT1-MMP sensitivity by incubating the peptides (0.1 mM) with MT1-MMP (0.13 µM) for 60 min. For ACPP-A, a small fraction (<5%) of the peptide was cleaved between the asparagine and leucine residue (Figure 3A). […] ACPP-A analogs (a peptide probe lacking the 5-amino-3-oxapentanoic acid linker residues and its linear analog) were also synthesized and tested for MT1-MMP sensitivity, showing also a low degree of activation (Figure S2). Accordingly, a recent study found a poor response of a genetically encoded MT1-MMP biosensor employing the same substrate. […] Therefore, further in-depth analysis of the MT1-MMP specificity and in vivo characteristics of ACPP-A was not performed.
Figure 3 LC-MS characterization of ACPP-A, ACPP-B, and ACPP-C (0.1 mM) incubated with MT1-MMP (0.13 µM) for 60 min. The left and right graphs show the UV absorbance chromatogram and the mass spectra of the UV-peaks bracketed by the arrowheads, respectively. […]
ACPP-A, ACPP-B, and ACPP-C (0.1 mM) were incubated with 15 nM MT1-MMP in a mixture of 50 mM Tris, 200 mM NaCl, 10 mM CaCl2 and 10 µM ZnCl2 at pH 7.5 at 700 rpm and 37 °C. After 1 h, the enzyme was quenched by the addition of TFA (10% v/v), and the reaction mixture was analyzed by LC-MS.

- fraction of the peptide cleaved by MT1-MMP: < 5%
SMILES: CC(=O)N[C@H](Cc1ccc(O)cc1)C(=O)N[C@H](CCC(=O)O)C(=O)N[C@H](CCC(=O)O)C(=O)N[C@H](CCC(=O)O)C(=O)N[C@H](CCC(=O)O)C(=O)N[C@H](CCC(=O)O)C(=O)N[C@H](CCC(=O)O)C(=O)N[C@H](CCC(=O)O)C(=O)N[C@H](CCC(=O)O)C(=O)N[C@H](CCC(=O)O)C(=O)NCCOCC(=O)N[C@H]1CSSC[C@@H](C(=O)N[C@@H](CC(N)=O)C(=O)N[C@@H](CC(C)C)C(=O)N[C@@H](Cc2ccccc2)C(=O)N[C@H](C(=O)N[C@@H](CC(C)C)C(=O)N[C@@H](CCCCN)C(=O)N[C@@H](CC(=O)O)C(=O)NCCOCC(=O)N[C@H](CCCNC(=N)N)C(=O)N[C@H](CCCNC(=N)N)C(=O)N[C@H](CCCNC(=N)N)C(=O)N[C@H](CCCNC(=N)N)C(=O)N[C@H](CCCNC(=N)N)C(=O)N[C@H](CCCNC(=N)N)C(=O)N[C@H](CCCNC(=N)N)C(=O)N[C@H](CCCNC(=N)N)C(=O)N[C@H](CCCNC(=N)N)C(=O)N[C@H](CCNC(=O)CN2CCN(CC(=O)O)CCN(CC(=O)O)CCN(CC(=O)O)CC2)C(N)=O)C(C)C)NC(=O)[C@H](CO)NC(=O)[C@H](CCC(=O)O)NC(=O)[C@H](CCCCN)NC(=O)[C@@H]2CCCN2C1=O [ACPP-A, Ac-y-e9-X-C*PKESC*NLFVLKD-X-r9-dab(DOTA)-NH2]
